Tests used:
Format in all cases: in vivo
[1] = system: New Zealand White rabbits; experiment: Microscopic grading of abnormal fat-containing cells in the liver of cholesterol-fed rabbits (fatty liver); settings: 1 % cholesterol diet for 6 weeks plus 1 mg/kg Lovastatin or 0.05 % neohesperidin dihydrochalcone
Experimental: (§1) 30 three-month-old New Zealand White rabbits(Yeonam Horticulture and Animal Husbandry College, Korea), each weighing about 2.5 to 2.6 kg, were raised under a condition of temperature 20±2°C, relative humidity 55±5 %, and photoperiod 12L/12D. The rabbits were divided into 3 groups and 3 groups of rabbits were fed with 3 different diets, i.e., RC4 diet(Oriental Yeast Co., Japan) containing 1 % cholesterol(Control group); 1 % cholesterol plus 1 mg/kg Lovastatin®(Merck, U.S.A.)(Lovastatin group); and 1 % cholesterol plus 0.05 % neohesperidin dihydrochalcone(Neohesperidin dihydrochalcone group), respectively. RC4 diet comprises 7.6 % moisture, 22.8 % crude protein, 2.8 % crude fat, 8.8 % crude ash, 14.4 % crude cellulose and 43.6 % soluble nitrogen-free substances. Neohesperidin dihydrochalcone was purchased from Sigma Chemical Co.(St. Louis, MO).
(§2) The rabbits were fed for 6 weeks while being allowed free access to the diets and water.
In order to evaluate the effects of feeding a high cholesterol diet with neohesperidin dihydrochalcone on liver tissues, the liver specimens taken from the sacrificed rabbit in Step 2 of Example 6 were treated in accordance with the procedure disclosed in Fogt F. and Nanji A., Toxicology and Applied Pharmacology, 136, 87-93, 1996; and Keegan A., et al., Journal of Hepatology 23: 591-600, 1995, and observed under a microscope to be classified into four grades, i.e., 1+(0-25%), 2+(26-50%), 3+(51-75), 4+(76-100%) based on the proportion of abnormal fat-containing cells around the central vein in the liver acinus.
Figs. 2A, 2B and 2C present the microscopic features of the livers of the rabbits administered with 1% cholesterol; 1% cholesterol plus 1 mg/kg Lovastatin®; 1% and cholesterol plus 0.05% neohesperidin dihydrochalcone, respectively.

[2] = system: New Zealand White rabbits; experiment: Chemical analysis of blood of cholesterol-fed rabbits; settings: rabbit serum, 1 % cholesterol diet for 6 weeks plus 1 mg/kg Lovastatin or 0.05 % neohesperidin dihydrochalcone
Experimental: as §1, §2
After six weeks, the rabbits were anesthetized with an intramuscular injection of ketamine (50 mg/kg) in the femoral region and sacrificed.

[3] = system: New Zealand White rabbits; experiment: Analysis for fatty streak in the main artery of cholesterol-fed rabbits (Oil Red O staining); settings: 1 % cholesterol diet for 6 weeks plus 1 mg/kg Lovastatin or 0.05 % neohesperidin dihydrochalcone
Experimental: as §1, §2
The chest of each of the rabbits sacrificed in Step 2 was incised. The downward portion of the main artery from the site 1 cm above the aortic valve was cut out in a length of about 5 cm and the fat surrounding the main artery was removed. The main artery was incised in the middle along the longitudinal axis and pinned to a dish. The moist artery was photographed and, then, the staining of fatty streaks was carried out in accordance with the method of Esper, E., et al. (J. Lab. Clin. Med., 121, 103-110(1993)) as follows.
A part of the incised main artery was washed three times with anhydrous propylene glycol for 2 min and stained for 30 min. with a saturated solution of Oil Red O(ORO, Sigma Co.) dissolved in propylene glycol. Thereafter, the artery was washed twice with 85 % propylene glycol for 3 min. to remove remaining staining solution and, then washed with physiological saline. The artery was photographed and the photograph was traced. The area of stained region (fatty streak region) was determined with an image analyzer(LEICA, Q-600, Germany) and its proportion(%) to the total arterial area was calculated.

- GOT [2]: 125 (±19) IU/1
- GPT [2]: 73 (±9) IU/l
- γ-GTP [2]: 12.4 (±0.8) IU/l
SMILES: CC[C@H](C)C(=O)O[C@H]1C[C@@H](C)C=C2C=C[C@H](C)[C@H](CC[C@@H]3C[C@@H](O)CC(=O)O3)[C@H]21 [Lovastatin, reference compound]
- B: Proportion of abnormal fat-containing cells ([1]; rabbit liver, cells around the central vein, mean of grades 1+ to 4+): 3.4 (±0.5)
- microscopic features of the liver (Figs. 2B, 2C) ([1]; rabbits): many cells containing excessive fat
- Total-C [2]: 1210 (±263) mg/dl
- A: Proportion(%) of fatty streak region to the total arterial area ([3]; rabbit main artery): 5 (±4) %
- layer of macrophage-lipid complex on the arterial endothelium (Figs. 1B, 1C) ([3]; rabbits): no or very thin layers of macrophage-lipid complex
